From patent publication US8415469B2, “Compounds and methods for kinase modulation, and indications therefor” (Plexxikon Inc., priority 2005, dated 2013)

Columns and labels:
Assay type in all cases: biochemical
[1] = molecular target: T1, Met (Homo sapiens, UniProt P08581); assay: AlphaScreen kinase assay, Met; conditions: read-out: IC50, activity toward kinase Met
T1 construct: P1818.pETN6 BI-PTP MET G1056-G1364-X WT; His6 (N); made in house; host or cells: E. coli (PTP1B co-expressed)
Excerpt: (§1) AlphaScreen assay was used to screen additional kinases. The assay is similarly dependent on the phosphorylation of a peptide substrate. In this assay, an antibody that recognizes phosphorylated substrate is bound to an acceptor bead. The peptide substrate is attached to biotin, which binds to a donor head that contains streptavidin. Thus phosphorylated substrate is bound by antibody and streptavidin, bringing the donor and acceptor heads into close proximity when kinase is not inhibited. The donor produces singlet oxygen which results in emission from the acceptor when they are in close proximity. Conversely, when kinase is inhibited, the donor and acceptor beads are not associated and the emission from the acceptor is reduced.
(§2) AlphaScreen assays were done using compounds dissolved in DMSO to a concentration of 20 mM. The compounds were diluted accordingly to the desired final concentrations in each sample well, using 1:3 serial dilution for a total of 8 concentration points.

[2] = molecular target: T2, Ret (Homo sapiens, UniProt P07949); assay: AlphaScreen kinase assay, Ret; conditions: read-out: IC50, activity toward kinase Ret
T2 construct: P1378.pET-SF BI-PTP RET H661-R1012 HIS; made in house
T2 sequence (P07949 with tags, fused parts or gaps): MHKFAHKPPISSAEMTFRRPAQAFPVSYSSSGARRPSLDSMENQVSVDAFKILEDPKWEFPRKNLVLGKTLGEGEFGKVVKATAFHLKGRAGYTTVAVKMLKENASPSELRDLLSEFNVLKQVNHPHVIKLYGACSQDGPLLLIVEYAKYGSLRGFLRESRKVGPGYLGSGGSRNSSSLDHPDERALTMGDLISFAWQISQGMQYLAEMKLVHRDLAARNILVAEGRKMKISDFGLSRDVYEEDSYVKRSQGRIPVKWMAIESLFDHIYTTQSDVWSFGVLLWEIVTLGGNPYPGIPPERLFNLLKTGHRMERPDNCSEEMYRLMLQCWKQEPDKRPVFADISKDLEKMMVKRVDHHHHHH

[3] = molecular target: T3, c-Raf-1 (Homo sapiens, UniProt P04049); assay: AlphaScreen kinase assay, c-Raf-1; conditions: read-out: IC50, activity toward kinase c-Raf-1
T3 construct: purchased Upstate Biotechnology
T3 sequence (P04049 whole entry): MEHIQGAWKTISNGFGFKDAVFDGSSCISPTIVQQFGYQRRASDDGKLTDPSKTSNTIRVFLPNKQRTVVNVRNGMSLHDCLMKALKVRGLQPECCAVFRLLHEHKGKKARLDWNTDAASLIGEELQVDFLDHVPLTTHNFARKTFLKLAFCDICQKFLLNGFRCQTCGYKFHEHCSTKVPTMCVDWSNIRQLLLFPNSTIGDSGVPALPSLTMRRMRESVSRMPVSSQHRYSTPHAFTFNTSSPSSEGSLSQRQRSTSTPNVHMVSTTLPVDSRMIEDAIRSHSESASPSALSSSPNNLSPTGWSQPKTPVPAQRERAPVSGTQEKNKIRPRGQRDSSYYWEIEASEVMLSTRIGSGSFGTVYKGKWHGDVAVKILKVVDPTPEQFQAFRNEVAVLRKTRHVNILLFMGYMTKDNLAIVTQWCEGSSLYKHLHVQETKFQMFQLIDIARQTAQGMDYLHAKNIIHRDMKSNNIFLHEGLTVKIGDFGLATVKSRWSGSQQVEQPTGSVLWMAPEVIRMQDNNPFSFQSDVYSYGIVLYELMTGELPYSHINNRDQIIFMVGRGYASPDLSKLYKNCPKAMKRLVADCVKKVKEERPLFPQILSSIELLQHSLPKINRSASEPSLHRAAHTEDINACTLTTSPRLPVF

[4] = molecular target: T4, Zap70 (Homo sapiens, UniProt P43403); assay: AlphaScreen kinase assay, Zap70; conditions: read-out: IC50, activity toward kinase Zap70
T4 construct: P1868.pFastBac1 ZAP70 D327-G606 HIS, WT; His7 (HHHHHHH) (C); made in house
T4 sequence (P43403 with tags, fused parts or gaps): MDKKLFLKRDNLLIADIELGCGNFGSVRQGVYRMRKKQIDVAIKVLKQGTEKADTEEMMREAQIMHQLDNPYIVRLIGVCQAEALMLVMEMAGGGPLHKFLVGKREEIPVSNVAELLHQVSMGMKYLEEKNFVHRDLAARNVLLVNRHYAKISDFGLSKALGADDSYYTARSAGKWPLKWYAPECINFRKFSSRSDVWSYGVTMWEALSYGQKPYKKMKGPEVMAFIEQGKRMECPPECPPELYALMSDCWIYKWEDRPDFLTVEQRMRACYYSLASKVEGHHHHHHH
Summary of the method: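 Bead-proximity format: phosphopeptide links anti-phospho antibody acceptor beads to streptavidin donor beads via biotin tag. Compounds were serially diluted 1:3 (8 points) from 20 mM stocks in DMSO.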

[5] = molecular target: T5, B-Raf V600E (Homo sapiens, UniProt P15056, V600E); assay: AlphaScreen kinase assay, B-Raf V600E; conditions: read-out: IC50, activity toward kinase B-Raf V600E
T5 construct: P4254. pFastBacBD-CDC37 BRAF D437-K722-X, V600E; His6 with pFastBac HT leader (TEV site) (N); made in house; host or cells: Sf9 (baculovirus; chaperone CDC37 co-expressed)
T5 sequence (P15056 with tags, fused parts or gaps V600E): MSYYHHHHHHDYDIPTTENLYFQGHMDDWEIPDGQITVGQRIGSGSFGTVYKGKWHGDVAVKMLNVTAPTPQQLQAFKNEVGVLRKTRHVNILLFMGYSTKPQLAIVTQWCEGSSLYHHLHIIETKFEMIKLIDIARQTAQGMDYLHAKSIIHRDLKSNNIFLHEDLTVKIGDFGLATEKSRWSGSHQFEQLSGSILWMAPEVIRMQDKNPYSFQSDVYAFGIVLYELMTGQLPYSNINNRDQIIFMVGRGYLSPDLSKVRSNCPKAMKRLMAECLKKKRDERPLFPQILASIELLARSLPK

[6] = molecular target: T6, Yes (Homo sapiens, UniProt P07947); assay: Z'-Lyte FRET kinase assay (Invitrogen), Yes; conditions: read-out: IC50, activity toward kinase Yes
T6 construct: purchased Invitrogen (Carlsbad, Calif.), screening service
Summary of the method: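 Read-out is the coumarin-to-fluorescein emission ratio, which rises when unphosphorylated peptide is cleaved by the development protease. Reactions contain serially diluted compound, 2 μM peptide and 10 μM ATP and run for 1 h at room temperature before 1 h development.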

[7] = molecular target: T7, Btk (Homo sapiens, UniProt Q06187); assay: Z'-Lyte FRET kinase assay (Invitrogen), Btk; conditions: read-out: IC50, activity toward kinase Btk
T7 construct: purchased Invitrogen (assay run by Invitrogen)

[8] = molecular target: T8, Abl (Homo sapiens, UniProt P00519); assay: AlphaScreen kinase assay, Abl; conditions: read-out: activity toward kinase Abl, IC50
T8 construct: P1121. pET-SPEC BI-PTP Abl G227-V515-X; His6 (N); made in house; host or cells: E. coli (PTP1B co-expressed)
T8 sequence (P00519 with tags, fused parts or gaps): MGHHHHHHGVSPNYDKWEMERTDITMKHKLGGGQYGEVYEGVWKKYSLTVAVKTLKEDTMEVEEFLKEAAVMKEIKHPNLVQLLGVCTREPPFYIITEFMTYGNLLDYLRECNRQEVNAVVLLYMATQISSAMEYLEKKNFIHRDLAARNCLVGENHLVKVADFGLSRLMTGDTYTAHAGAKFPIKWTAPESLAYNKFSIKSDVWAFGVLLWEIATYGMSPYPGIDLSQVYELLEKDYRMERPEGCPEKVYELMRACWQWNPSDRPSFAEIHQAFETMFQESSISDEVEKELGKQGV
Excerpt: as §1, §2

[9] = molecular target: T9, Jnk3 (Homo sapiens, UniProt P53779); assay: AlphaScreen kinase assay, Jnk3; conditions: read-out: IC50, activity toward kinase Jnk3
T9 construct: purchased Upstate Biotechnology
T9 sequence (P53779 whole entry): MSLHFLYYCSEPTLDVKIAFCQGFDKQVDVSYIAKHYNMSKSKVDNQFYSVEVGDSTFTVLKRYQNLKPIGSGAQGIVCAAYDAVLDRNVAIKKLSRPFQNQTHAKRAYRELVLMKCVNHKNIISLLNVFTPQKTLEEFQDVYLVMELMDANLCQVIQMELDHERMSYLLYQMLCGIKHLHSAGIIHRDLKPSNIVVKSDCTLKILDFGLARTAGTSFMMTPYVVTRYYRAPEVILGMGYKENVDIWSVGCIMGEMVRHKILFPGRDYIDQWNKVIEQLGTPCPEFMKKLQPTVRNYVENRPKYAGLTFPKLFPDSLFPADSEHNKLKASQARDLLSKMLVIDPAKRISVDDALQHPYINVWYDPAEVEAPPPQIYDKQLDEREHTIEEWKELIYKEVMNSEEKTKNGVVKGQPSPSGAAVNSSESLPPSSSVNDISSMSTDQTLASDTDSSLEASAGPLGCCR

[10] = molecular target: T10, FGFR1 (Homo sapiens, UniProt P11362, C488A/C584S); assay: AlphaScreen kinase assay, FGFR1; conditions: read-out: IC50, activity toward kinase FGFR
T10 construct: P1351.pET N6 BI-PTP FGFR A458-E765-X C488A, C584S; made in house; host or cells: E. coli (PTP1B co-expressed)
T10 sequence (P11362 458-765 C488A/C584S): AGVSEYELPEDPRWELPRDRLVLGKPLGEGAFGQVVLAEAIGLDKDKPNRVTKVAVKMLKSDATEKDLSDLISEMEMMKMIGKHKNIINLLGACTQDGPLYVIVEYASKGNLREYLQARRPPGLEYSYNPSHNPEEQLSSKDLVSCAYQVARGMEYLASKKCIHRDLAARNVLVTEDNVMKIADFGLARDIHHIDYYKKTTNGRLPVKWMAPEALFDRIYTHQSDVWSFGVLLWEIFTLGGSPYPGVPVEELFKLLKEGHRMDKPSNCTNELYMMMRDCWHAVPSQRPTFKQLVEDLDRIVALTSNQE

[11] = molecular target: T11, B-Raf (Homo sapiens, UniProt P15056); assay: AlphaScreen kinase assay, B-Raf; conditions: read-out: IC50, activity toward kinase B-Raf
T11 construct: purchased Upstate Biotechnology
T11 sequence (P15056 whole entry): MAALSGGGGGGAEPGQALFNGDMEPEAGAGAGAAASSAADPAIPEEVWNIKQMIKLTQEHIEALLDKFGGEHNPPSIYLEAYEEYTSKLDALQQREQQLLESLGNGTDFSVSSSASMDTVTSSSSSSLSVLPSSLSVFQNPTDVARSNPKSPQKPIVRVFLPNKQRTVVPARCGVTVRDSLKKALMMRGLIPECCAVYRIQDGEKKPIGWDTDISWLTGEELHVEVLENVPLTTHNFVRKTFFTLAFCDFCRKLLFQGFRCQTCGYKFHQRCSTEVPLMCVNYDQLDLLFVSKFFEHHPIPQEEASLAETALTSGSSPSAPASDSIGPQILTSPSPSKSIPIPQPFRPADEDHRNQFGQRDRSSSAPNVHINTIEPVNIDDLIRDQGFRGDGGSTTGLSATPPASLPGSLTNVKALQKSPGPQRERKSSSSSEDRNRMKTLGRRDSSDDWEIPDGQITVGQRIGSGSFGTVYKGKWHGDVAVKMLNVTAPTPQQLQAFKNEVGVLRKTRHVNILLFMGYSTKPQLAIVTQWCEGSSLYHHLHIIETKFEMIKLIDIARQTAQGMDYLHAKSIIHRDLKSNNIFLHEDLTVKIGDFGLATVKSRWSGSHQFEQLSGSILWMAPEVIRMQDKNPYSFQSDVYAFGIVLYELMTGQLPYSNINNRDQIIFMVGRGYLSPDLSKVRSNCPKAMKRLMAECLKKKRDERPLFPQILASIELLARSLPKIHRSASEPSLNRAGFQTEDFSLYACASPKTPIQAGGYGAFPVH

[12] = molecular target: T12, Kdr (Homo sapiens, UniProt P35968); assay: Z'-Lyte FRET kinase assay (Invitrogen), Kdr; conditions: read-out: IC50, activity toward kinase Kdr
T12 construct: purchased Invitrogen (assay run by Invitrogen)

[13] = molecular target: T13, Flt1 (Homo sapiens, UniProt P17948); assay: AlphaScreen kinase assay, Flt1; conditions: read-out: IC50, activity toward kinase Flt1
T13 construct: P1826.pETN6 BI-PTP FLT1 M799-D1165-X WT; His6 (N); made in house; host or cells: E. coli (PTP1B co-expressed)
T13 sequence (P17948 with tags, fused parts or gaps): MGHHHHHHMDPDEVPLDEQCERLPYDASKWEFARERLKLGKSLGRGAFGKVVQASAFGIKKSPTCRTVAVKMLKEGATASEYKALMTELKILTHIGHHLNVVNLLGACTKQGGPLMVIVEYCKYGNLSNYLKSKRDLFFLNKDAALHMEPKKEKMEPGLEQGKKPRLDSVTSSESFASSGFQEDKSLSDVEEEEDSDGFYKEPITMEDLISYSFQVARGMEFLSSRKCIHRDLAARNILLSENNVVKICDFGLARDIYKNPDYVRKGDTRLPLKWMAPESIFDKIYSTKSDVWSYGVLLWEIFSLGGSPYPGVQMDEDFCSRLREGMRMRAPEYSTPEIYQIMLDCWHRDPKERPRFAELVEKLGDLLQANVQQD

[14] = molecular target: T14, Kit (Homo sapiens, UniProt P10721); assay: AlphaScreen kinase assay, Kit; conditions: read-out: IC50, activity toward kinase Kit
T14 construct: P1332.N6 BI PTP KIT M552-K948-X COD; His6 (N); made in house; host or cells: E. coli (PTP1B co-expressed)
T14 sequence (P10721 with tags, fused parts or gaps): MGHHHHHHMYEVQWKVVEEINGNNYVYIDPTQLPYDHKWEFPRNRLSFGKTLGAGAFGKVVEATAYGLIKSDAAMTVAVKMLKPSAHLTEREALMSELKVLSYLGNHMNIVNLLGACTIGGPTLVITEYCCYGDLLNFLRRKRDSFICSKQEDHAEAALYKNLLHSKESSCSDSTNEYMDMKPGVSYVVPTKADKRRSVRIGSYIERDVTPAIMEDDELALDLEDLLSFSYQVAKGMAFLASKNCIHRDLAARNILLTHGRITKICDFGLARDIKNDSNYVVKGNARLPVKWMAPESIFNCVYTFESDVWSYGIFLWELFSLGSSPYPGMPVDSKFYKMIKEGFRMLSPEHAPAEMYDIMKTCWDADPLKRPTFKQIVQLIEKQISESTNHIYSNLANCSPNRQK

[15] = molecular target: T15, Fms (Homo sapiens, UniProt P07333); assay: AlphaScreen kinase assay, Fms; conditions: read-out: IC50, activity toward kinase Fms
T15 construct: purchased Upstate Biotechnology
T15 sequence (P07333 20-972): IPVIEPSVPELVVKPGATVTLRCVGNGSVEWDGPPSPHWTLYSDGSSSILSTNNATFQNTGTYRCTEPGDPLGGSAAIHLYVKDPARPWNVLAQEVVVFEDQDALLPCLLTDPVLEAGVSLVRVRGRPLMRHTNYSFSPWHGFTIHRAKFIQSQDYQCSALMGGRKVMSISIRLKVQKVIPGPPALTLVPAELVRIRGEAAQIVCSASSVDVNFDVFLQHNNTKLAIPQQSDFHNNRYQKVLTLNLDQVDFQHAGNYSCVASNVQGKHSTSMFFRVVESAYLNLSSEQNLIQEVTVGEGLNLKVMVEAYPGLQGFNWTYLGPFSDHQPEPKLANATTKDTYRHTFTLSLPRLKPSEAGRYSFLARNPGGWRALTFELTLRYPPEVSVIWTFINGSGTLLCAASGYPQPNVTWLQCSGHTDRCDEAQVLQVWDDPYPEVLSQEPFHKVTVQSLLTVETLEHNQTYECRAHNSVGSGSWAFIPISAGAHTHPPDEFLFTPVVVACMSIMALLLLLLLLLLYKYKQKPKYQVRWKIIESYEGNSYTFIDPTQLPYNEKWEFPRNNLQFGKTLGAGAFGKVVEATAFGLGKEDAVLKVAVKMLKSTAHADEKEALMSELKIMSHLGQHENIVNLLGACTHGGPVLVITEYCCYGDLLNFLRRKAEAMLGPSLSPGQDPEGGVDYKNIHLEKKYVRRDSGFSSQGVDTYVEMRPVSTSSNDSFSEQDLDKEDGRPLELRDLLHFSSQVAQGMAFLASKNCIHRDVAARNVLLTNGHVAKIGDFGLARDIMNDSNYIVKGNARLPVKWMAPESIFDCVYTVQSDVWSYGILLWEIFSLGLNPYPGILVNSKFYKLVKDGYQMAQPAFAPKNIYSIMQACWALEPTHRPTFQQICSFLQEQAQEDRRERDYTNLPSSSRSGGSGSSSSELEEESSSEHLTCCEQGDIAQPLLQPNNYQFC

[16] = molecular target: T16, Src (Homo sapiens, UniProt P12931); assay: AlphaScreen kinase assay, Src; conditions: read-out: IC50, activity toward kinase Src
T16 construct: P1144. pET-N6 BI-PTP SRC V86-L536-X; made in house

[17] = molecular target: T17, Jnk1 (Homo sapiens, UniProt P45983); assay: AlphaScreen kinase assay, Jnk1; conditions: read-out: IC50, activity toward kinase Jnk1
T17 construct: purchased Upstate Biotechnology
T17 sequence (P45983 whole entry): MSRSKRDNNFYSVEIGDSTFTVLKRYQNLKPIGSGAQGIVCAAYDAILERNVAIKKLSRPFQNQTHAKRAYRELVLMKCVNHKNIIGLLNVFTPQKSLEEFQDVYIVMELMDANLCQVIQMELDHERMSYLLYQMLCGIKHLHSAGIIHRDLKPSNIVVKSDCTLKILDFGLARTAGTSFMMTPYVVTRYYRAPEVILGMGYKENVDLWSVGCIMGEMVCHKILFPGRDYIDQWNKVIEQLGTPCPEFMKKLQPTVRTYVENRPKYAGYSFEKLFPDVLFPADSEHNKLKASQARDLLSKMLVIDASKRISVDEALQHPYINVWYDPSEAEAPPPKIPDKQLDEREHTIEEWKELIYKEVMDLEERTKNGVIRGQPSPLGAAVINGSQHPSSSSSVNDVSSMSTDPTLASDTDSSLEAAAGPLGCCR

[18] = molecular target: MAP4K4 (Homo sapiens, UniProt O95819); assay: AlphaScreen kinase assay, MAP4K4; conditions: read-out: IC50, activity toward kinase MAP4K4

T1 sequence (P08581 with tags, fused parts or gaps): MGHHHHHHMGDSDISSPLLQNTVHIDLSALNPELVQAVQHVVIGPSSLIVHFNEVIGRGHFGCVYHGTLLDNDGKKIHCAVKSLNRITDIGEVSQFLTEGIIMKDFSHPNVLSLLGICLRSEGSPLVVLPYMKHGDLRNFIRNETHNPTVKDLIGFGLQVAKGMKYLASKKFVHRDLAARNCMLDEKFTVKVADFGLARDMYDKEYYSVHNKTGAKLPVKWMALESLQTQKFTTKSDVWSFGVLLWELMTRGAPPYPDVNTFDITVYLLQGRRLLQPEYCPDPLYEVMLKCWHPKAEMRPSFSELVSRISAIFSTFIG

Structure (SMILES)	IC50 [1] [µM]	IC50 [2] [µM]	IC50 [5] [µM]	IC50 [9] [µM]	IC50 [10] [µM]	IC50 [14] [µM]	further results
COc1ccc(F)c(C(=O)c2c[nH]c3ncc(-c4cccc(/C=C/C(=O)O)c4)cc23)c1 [Compound P-0047]	–	≤ 10	≤ 10	≤ 10	–	–	IC50 [4]: ≤ 10 µM; IC50 [6]: ≤ 10 µM; IC50 [7]: ≤ 10 µM; IC50 [8]: ≤ 10 µM
CC(=O)c1cccc(Nc2cnc3[nH]ccc3c2)c1 [Compound P-1008]	≤ 10	–	≤ 10	≤ 10	≤ 10	≤ 10	IC50 [13]: ≤ 10 µM; IC50 [17]: ≤ 10 µM; IC50 [15]: ≤ 10 µM
CCCS(=O)(=O)Nc1ccc(F)c(C(=O)c2c[nH]c3ncc(Br)cc23)c1F [Compound P-0773, propane-1-sulfonic acid [3-(5-bromo-1H-pyrrolo[2,3-b]pyridine-3-carbonyl)-2,4-difluoro-phenyl]-amide]	≤ 10	–	≤ 10	–	≤ 10	≤ 10	IC50 [13]: ≤ 10 µM; IC50 [11]: ≤ 10 µM; IC50 [3]: ≤ 10 µM; IC50 [15]: ≤ 10 µM
COC(=O)COc1ccc(F)c(Cc2c[nH]c3ncc(-c4cccnc4)cc23)c1F [Compound P-1465, [2,4-Difluoro-3-(5-pyridin-3-yl-1H-pyrrolo[2,3-b]pyridin-3-ylmethyl)-phenoxy]-acetic acid methyl ester]	≤ 10	–	≤ 10	≤ 10	≤ 10	≤ 10	IC50 [13]: ≤ 10 µM; IC50 [17]: ≤ 10 µM; IC50 [15]: ≤ 10 µM
CC(C)(C)c1ccc(Nc2cnc3[nH]ccc3c2)cc1 [Compound P-1023]	≤ 10	–	–	–	–	–	IC50 [12]: ≤ 10 µM
COc1cc(Nc2cnc3[nH]ccc3c2)cc(OC)c1OC [Compound P-1092]	≤ 10	–	–	–	–	–	–
Cc1cc(C(=O)c2c[nH]c3ncc(-c4cccnc4)cc23)n(C)n1 [Compound P-0800]	–	–	–	–	–	≤ 10	IC50 [8]: ≤ 10 µM; IC50 [18]: ≤ 10 µM

Continued, in another order:

IC50 [1] [µM]	IC50 [2] [µM]	IC50 [5] [µM]	IC50 [9] [µM]	IC50 [10] [µM]	IC50 [14] [µM]	Structure (SMILES)	further results
≤ 10	≤ 10	–	–	–	–	O=C(Nc1ccccc1)Nc1ccc(Cc2c[nH]c3ncccc23)cc1 [Compound P-0542]	IC50 [3]: ≤ 10 µM
≤ 10	–	–	–	–	–	Cc1ccc(Nc2cnc3[nH]ccc3c2)cc1 [Compound P-1037]	–
≤ 10	≤ 10	–	–	–	–	O=C(NCc1ccccn1)NCc1c[nH]c2ncccc12 [Compound P-0761]	–
≤ 10	≤ 10	–	≤ 10	–	–	Oc1ncc(F)c(Cc2c[nH]c3ncc(-c4ccsc4)cc23)c1F [Compound P-0822]	–
≤ 10	≤ 10	≤ 10	≤ 10	≤ 10	–	O=C(c1cccc(Cl)c1F)c1c[nH]c2ncc(-c3cccnc3)cc12 [Compound P-0165, (3-Chloro-2-fluoro-phenyl)-(5-pyridin-3-yl-1H-pyrrolo[2,3-b]pyridin-3-yl)-methanone]	IC50 [11]: ≤ 10 µM; IC50 [3]: ≤ 10 µM; IC50 [12]: ≤ 10 µM
≤ 10	–	≤ 10	–	≤ 10	≤ 10	CS(=O)(=O)Nc1cccc(-c2cnc3[nH]cc(C(=O)c4c(F)ccc(OC(F)F)c4F)c3c2)c1 [Compound P-1527, N-{3-[3-(3-Difluoromethoxy-2,6-difluoro-benzoyl)-1H-pyrrolo[2,3-b]pyridin-5-yl]-phenyl}-methanesulfonamide]	IC50 [13]: ≤ 10 µM; IC50 [11]: ≤ 10 µM; IC50 [15]: ≤ 10 µM; IC50 [16]: ≤ 10 µM
≤ 10	–	–	–	–	–	Cc1cccc(-c2c(CSCc3ccccc3)[nH]c3ncccc23)c1 [Compound P-1132]	–
